What follows are molecules tested against T1, Ephrin type-B receptor 4 (Homo sapiens) (UniProt P54760) (assay: Inhibition of EphB4 at 1 uM after 1 hr).
T1 sequence (whole entry): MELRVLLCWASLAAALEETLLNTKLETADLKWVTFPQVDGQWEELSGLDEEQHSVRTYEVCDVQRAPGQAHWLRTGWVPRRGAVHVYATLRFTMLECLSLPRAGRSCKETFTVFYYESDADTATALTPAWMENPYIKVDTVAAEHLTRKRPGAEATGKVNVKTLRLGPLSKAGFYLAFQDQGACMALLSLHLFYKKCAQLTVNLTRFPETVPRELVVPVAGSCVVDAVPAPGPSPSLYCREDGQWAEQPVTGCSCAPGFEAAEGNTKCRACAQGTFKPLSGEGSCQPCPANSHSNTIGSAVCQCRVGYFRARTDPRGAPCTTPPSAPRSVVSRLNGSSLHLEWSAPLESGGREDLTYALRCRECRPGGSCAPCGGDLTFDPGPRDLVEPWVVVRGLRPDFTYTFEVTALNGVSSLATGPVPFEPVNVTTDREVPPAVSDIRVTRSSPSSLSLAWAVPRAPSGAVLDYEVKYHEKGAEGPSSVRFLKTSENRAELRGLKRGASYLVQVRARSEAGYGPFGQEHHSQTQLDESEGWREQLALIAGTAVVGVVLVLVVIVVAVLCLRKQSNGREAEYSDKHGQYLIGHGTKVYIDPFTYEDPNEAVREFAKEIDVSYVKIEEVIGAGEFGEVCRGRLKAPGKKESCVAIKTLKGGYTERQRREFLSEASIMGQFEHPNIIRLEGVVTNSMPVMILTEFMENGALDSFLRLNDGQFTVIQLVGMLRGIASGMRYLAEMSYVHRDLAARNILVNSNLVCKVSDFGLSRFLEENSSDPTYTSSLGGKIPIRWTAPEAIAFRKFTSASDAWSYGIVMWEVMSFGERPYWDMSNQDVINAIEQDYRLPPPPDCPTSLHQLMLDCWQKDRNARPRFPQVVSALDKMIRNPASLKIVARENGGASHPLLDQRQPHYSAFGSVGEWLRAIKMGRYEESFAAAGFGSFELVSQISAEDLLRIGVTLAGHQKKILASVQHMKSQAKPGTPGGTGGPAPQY

Row | Compound | inhibition [%]
1 | O=C(Nc1cccc(-c2cn3ccnc3c(NCc3ccncc3)n2)c1)Nc1ccccc1Oc1ccccc1 | 22
2 | O=C(Nc1cccc(-c2cn3ccnc3c(NCc3ccncc3)n2)c1)Nc1ccccc1C(F)(F)F | 41
3 | O=C(Nc1cccc(F)c1)Nc1cccc(-c2cn3ccnc3c(NCc3ccncc3)n2)c1 | 47
4 | O=C(Nc1ccc(Br)cc1)Nc1cccc(-c2cn3ccnc3c(NCc3ccncc3)n2)c1 | 22
5 | O=C(Nc1ccc(C(F)(F)F)cc1)Nc1cccc(-c2cn3ccnc3c(NCc3ccncc3)n2)c1 | 10
6 | O=C(Nc1cccc(-c2cn3ccnc3c(NCc3ccncc3)n2)c1)Nc1ccccc1F | 22
7 | COc1ccc(C(F)(F)F)cc1NC(=O)CNc1cccc(-c2cn3ccnc3c(NCc3ccncc3)n2)c1 | 2.9
8 | Cc1ccccc1NC(=O)Nc1cccc(-c2cn3ccnc3c(NCc3ccncc3)n2)c1 | 30
9 | O=C(Nc1ccccc1)Nc1cccc(-c2cn3ccnc3c(NCc3ccncc3)n2)c1 | 10
10 | COc1ccc(NC(=O)Nc2cccc(-c3cn4ccnc4c(NCc4ccncc4)n3)c2)cc1 | 10
11 | CCc1ccc(NC(=O)Nc2cccc(-c3cn4ccnc4c(NCc4ccncc4)n3)c2)cc1 | 10
12 | O=C(Nc1cccc(-c2cn3ccnc3c(Nc3cccnc3)n2)c1)Nc1cccc(C(F)(F)F)c1 | 1
13 | COc1ccccc1NC(=O)Nc1cccc(-c2cn3ccnc3c(NCc3ccncc3)n2)c1 | 54
14 | CSc1ccccc1NC(=O)Nc1cccc(-c2cn3ccnc3c(NCc3ccncc3)n2)c1 | 63

The molecules below were run against T1, Ephrin type-B receptor 4 (Homo sapiens) (assay: Inhibition of EphB4 at 10 uM after 1 hr).

Row | Compound | inhibition [%]
15 | O=C(Nc1cccc(-c2cn3ccnc3c(Nc3ccncc3)n2)c1)Nc1cccc(C(F)(F)F)c1 | 32
16 | O=C(Nc1cccc(-c2cn3ccnc3c(Nc3ccccc3)n2)c1)Nc1cccc(C(F)(F)F)c1 | 36
17 | O=C(Nc1cccc(-c2cn3ccnc3c(NCc3ccccn3)n2)c1)Nc1cccc(C(F)(F)F)c1 | 32

Each molecule was assayed against T2, Ephrin type-B receptor 4 (Homo sapiens, UniProt P54760) (assay: Inhibition of EphB4 after 1 hr).
T2 sequence (P54760 whole entry): T1 sequence (whole entry)

Row | Compound | IC50 [nM]
18 | O=C(Nc1cccc(-c2cn3ccnc3c(NCCc3ccncc3)n2)c1)Nc1cccc(C(F)(F)F)c1 | 158
19 | O=C(Nc1cccc(-c2cn3ccnc3c(NCc3ccncc3)n2)c1)Nc1c(Cl)cccc1Cl | 1000
20 | O=C(Nc1cccc(-c2cn3ccnc3c(NCc3ccncc3)n2)c1)Nc1ccccc1Br | 1700
21 | O=C(Nc1cccc(-c2cn3ccnc3c(NCc3ccncc3)n2)c1)Nc1cc(Cl)ccc1Cl | 101
22 | O=C(Nc1cccc(-c2cn3ccnc3c(NCc3ccccc3)n2)c1)Nc1cccc(C(F)(F)F)c1 | 50000
23 | COc1ccc(C#N)cc1NC(=O)Nc1cccc(-c2cn3ccnc3c(NCc3ccncc3)n2)c1 | 125
24 | O=C(Cc1cccc(C(F)(F)F)c1)Nc1cccc(-c2cn3ccnc3c(NCc3ccncc3)n2)c1 | 2400
25 | Cc1ccc(NC(=O)Nc2cccc(-c3cn4ccnc4c(NCc4ccncc4)n3)c2)cc1C(F)(F)F | 810
26 | Cc1cccc(NC(=O)Nc2cccc(-c3cn4ccnc4c(NCc4ccncc4)n3)c2)c1 | 300
27 | O=C(Nc1cccc(-c2cn3ccnc3c(NCc3ccncc3)n2)c1)Nc1cc(Cl)c(Cl)cc1Cl | 517
28 | O=C(Nc1cccc(-c2cn3ccnc3c(NCc3ccncc3)n2)c1)Nc1ccc(Cl)cc1Cl | 1900
29 | Cc1ccc(Cl)cc1NC(=O)Nc1cccc(-c2cn3ccnc3c(NCc3ccncc3)n2)c1 | 160
30 | O=C(Nc1ccc(Cl)cc1)Nc1cccc(-c2cn3ccnc3c(NCc3ccncc3)n2)c1 | 4600
31 | COc1cc(OC)c(NC(=O)Nc2cccc(-c3cn4ccnc4c(NCc4ccncc4)n3)c2)cc1Cl | 402
32 | O=C(Nc1cccc(-c2cn3ccnc3c(NCC3CCNCC3)n2)c1)Nc1cccc(C(F)(F)F)c1 | 50000
33 | CSc1cccc(NC(=O)Nc2cccc(-c3cn4ccnc4c(NCc4ccncc4)n3)c2)c1 | 1200
34 | O=C(NCc1cccc(C(F)(F)F)c1)Nc1cccc(-c2cn3ccnc3c(NCc3ccncc3)n2)c1 | 2100
35 | O=C(Nc1cccc(-c2cn3ccnc3c(NCc3ccncc3)n2)c1)c1cccc(C(F)(F)F)c1 | 744
36 | O=C(Nc1cccc(-c2cn3ccnc3c(NCc3ccncc3)n2)c1)Nc1cc(Cl)ccc1Oc1ccccc1 | 138
37 | O=C(Nc1cccc(Br)c1)Nc1cccc(-c2cn3ccnc3c(NCc3ccncc3)n2)c1 | 213
38 | O=C(Nc1cc(Cl)cc(Cl)c1)Nc1cccc(-c2cn3ccnc3c(NCc3ccncc3)n2)c1 | 1800
39 | COc1cc(OC)c(NC(=O)Nc2cccc(-c3cn4ccnc4c(NCc4ccncc4)n3)c2)cc1Br | 206
40 | COc1cccc(NC(=O)Nc2cccc(-c3cn4ccnc4c(NCc4ccncc4)n3)c2)c1 | 1700
41 | O=C(Nc1cccc(-c2cn3ccnc3c(NCc3ccncc3)n2)c1)Nc1cc(C(F)(F)F)ccc1Cl | 66
42 | O=C(Nc1cccc(-c2cn3ccnc3c(NCc3cccnc3)n2)c1)Nc1cccc(C(F)(F)F)c1 | 7800

Row | Compound | IC50 [nM]
43 | O=C(Nc1cccc(-c2cn3ccnc3c(NCc3ccncc3)n2)c1)Nc1cc(C(F)(F)F)ccc1O | 37
44 | O=C(Nc1cccc(-c2cn3ccnc3c(OCc3ccncc3)n2)c1)Nc1cccc(C(F)(F)F)c1 | 105
45 | O=C(NCc1cccc(C(F)(F)F)c1)c1cccc(-c2cn3ccnc3c(NCc3ccncc3)n2)c1 | 11100
46 | O=C(Nc1cccc(-c2cn3ccnc3c(NCc3ccncc3)n2)c1)Nc1ccc(Cl)c(Cl)c1 | 2500
47 | CN(Cc1ccncc1)c1nc(-c2cccc(NC(=O)Nc3cccc(C(F)(F)F)c3)c2)cn2ccnc12 | 69
48 | N#Cc1cccc(NC(=O)Nc2cccc(-c3cn4ccnc4c(NCc4ccncc4)n3)c2)c1 | 1900
49 | Cc1ccc(NC(=O)Nc2cccc(-c3cn4ccnc4c(NCc4ccncc4)n3)c2)cc1 | 7900
50 | O=C(Nc1cccc(-c2cn3ccnc3c(NCc3ccncc3)n2)c1)Nc1ccc(Cl)c(C(F)(F)F)c1 | 1200
51 | COc1cc(OC)c(C(F)(F)F)cc1NC(=O)Nc1cccc(-c2cn3ccnc3c(NCc3ccncc3)n2)c1 | 518
52 | O=C(Nc1cccc(Cl)c1)Nc1cccc(-c2cn3ccnc3c(NCc3ccncc3)n2)c1 | 165
53 | COc1ccc(Cl)cc1NC(=O)Nc1cccc(-c2cn3ccnc3c(NCc3ccncc3)n2)c1 | 77
54 | COc1ccc(Cl)cc1NC(=O)Nc1cccc(-c2cn3ccnc3c(N)n2)c1 | 5400
55 | O=C(Nc1cccc(Oc2ccccc2)c1)Nc1cccc(-c2cn3ccnc3c(NCc3ccncc3)n2)c1 | 10500
56 | O=S(=O)(Nc1cccc(-c2cn3ccnc3c(NCc3ccncc3)n2)c1)c1cccc(C(F)(F)F)c1 | 50000
57 | Cc1ccc(C)c(NC(=O)Nc2cccc(-c3cn4ccnc4c(NCc4ccncc4)n3)c2)c1 | 938
58 | O=C(Nc1cccc(-c2cn3ccnc3c(NCc3ccc(C(=O)O)cc3)n2)c1)Nc1cccc(C(F)(F)F)c1 | 5300
59 | O=C(Nc1cccc(-c2cn3ccnc3c(NCc3ccncc3)n2)c1)Nc1cccc(Cl)c1Cl | 5700
60 | CNc1nc(-c2cccc(NC(=O)Nc3cc(Cl)ccc3OC)c2)cn2ccnc12 | 5700
61 | CCOc1cc(OCC)c(C(F)(F)F)cc1NC(=O)Nc1cccc(-c2cn3ccnc3c(NCc3ccncc3)n2)c1 | 211
62 | O=C(Nc1ccc(-c2cn3ccnc3c(NCc3ccncc3)n2)cc1)Nc1cccc(C(F)(F)F)c1 | 50000
63 | O=C(NCc1cccc(-c2cn3ccnc3c(NCc3ccncc3)n2)c1)Nc1cccc(C(F)(F)F)c1 | 6800
64 | COc1ccc(C)cc1NC(=O)Nc1cccc(-c2cn3ccnc3c(NCc3ccncc3)n2)c1 | 78
65 | O=C(Nc1ccc(F)cc1)Nc1cccc(-c2cn3ccnc3c(NCc3ccncc3)n2)c1 | 7400
66 | O=C(Nc1cccc(-c2cn3ccnc3c(NCc3ccncc3)n2)c1)Nc1ccc(F)c(C(F)(F)F)c1 | 850
67 | O=C(Nc1cccc(-c2cn3ccnc3c(NCc3ccncc3)n2)c1)Nc1ccccc1Cl | 2900

These molecules were tested against T3, Angiopoietin-1 receptor (Homo sapiens, UniProt Q02763) (assay: Inhibition of Tie2 after 1 hr).
T3 sequence (Q02763 whole entry): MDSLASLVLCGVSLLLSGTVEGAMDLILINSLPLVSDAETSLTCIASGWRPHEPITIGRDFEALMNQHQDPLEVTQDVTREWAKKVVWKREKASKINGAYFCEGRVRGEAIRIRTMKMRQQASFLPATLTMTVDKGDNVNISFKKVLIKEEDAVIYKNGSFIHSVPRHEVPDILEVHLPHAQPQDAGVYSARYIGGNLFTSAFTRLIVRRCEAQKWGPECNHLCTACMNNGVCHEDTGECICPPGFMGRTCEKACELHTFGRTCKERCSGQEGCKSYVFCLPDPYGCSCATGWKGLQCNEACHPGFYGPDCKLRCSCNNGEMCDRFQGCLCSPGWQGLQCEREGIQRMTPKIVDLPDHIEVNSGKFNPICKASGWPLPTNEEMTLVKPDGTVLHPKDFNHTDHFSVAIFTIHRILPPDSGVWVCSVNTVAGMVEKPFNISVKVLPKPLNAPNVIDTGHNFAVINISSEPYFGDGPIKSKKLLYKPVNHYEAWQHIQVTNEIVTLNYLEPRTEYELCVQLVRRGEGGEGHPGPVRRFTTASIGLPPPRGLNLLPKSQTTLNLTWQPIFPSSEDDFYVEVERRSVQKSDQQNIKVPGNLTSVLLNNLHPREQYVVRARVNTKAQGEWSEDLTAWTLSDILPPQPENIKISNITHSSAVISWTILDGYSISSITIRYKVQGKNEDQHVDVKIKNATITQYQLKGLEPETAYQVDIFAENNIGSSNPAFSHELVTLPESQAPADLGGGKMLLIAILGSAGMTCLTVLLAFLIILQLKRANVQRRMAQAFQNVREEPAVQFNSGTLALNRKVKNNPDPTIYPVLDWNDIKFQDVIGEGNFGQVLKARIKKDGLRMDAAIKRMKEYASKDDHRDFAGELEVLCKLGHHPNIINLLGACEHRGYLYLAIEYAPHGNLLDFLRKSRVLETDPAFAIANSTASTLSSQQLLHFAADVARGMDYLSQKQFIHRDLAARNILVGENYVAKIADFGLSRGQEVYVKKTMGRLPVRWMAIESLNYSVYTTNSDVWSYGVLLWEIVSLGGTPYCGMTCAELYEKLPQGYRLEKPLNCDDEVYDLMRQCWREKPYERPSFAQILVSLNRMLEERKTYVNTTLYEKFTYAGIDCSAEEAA

Row | Compound | IC50 [nM]
68 | COc1ccc(C(F)(F)F)cc1NC(=O)Nc1cccc(-c2cn3ccnc3c(NCc3ccncc3)n2)c1 | 33
69 | O=C(Nc1cccc(-c2cn3ccnc3c(NCc3ccncc3)n2)c1)Nc1cc(C(F)(F)F)ccc1F | 37
70 | COc1ccc(Br)cc1NC(=O)Nc1cccc(-c2cn3ccnc3c(NCc3ccncc3)n2)c1 | 75

What follows are molecules tested against T3, Angiopoietin-1 receptor (assay: Inhibition of Tie2 autophosphorylation by cell based assay).

Row | Compound | IC50 [nM]
71 | COc1ccc(C(F)(F)F)cc1NC(=O)Nc1cccc(-c2cn3ccnc3c(NCc3ccncc3)n2)c1 | 50
72 | O=C(Nc1cccc(-c2cn3ccnc3c(NCc3ccncc3)n2)c1)Nc1cc(C(F)(F)F)ccc1F | 100
73 | COc1ccc(Br)cc1NC(=O)Nc1cccc(-c2cn3ccnc3c(NCc3ccncc3)n2)c1 | 250
